Test system: patients of the REDUCE-IT and earlier EPA placebo-controlled trials
Experiment: Example 3: adverse events by risk ratio, icosapent ethyl vs placebo (candidate categories; infectious disease terms of interest)
Conditions: R-I
[1] = Age-Related Macular Degeneration

## CC/C=C\C/C=C\C/C=C\C/C=C\C/C=C\CCCC(=O)OCC [icosapent ethyl, eicosapentaenoic acid ethyl ester]
  Risk Ratio (95% CI): Cognitive Decline: Cognitive and attention disorders and disturbances (AE table): 1.000 (0.141 to 7.097) −1
  Risk Ratio (95% CI): Cognitive Decline: Cognitive disturbances (AE table): [No cases in study]
  Risk Ratio (95% CI): Cough (AE table): 1.000 (0.841 to 1.189) −1
  Risk Ratio (95% CI): Cystic Fibrosis (AE table): [No cases in study]
  Risk Ratio (95% CI): Decreased Appetite (AE table): 2.584 (1.329 to 5.024) −4
  Risk Ratio (95% CI): Deep Venous Thromboembolism (AE table): 0.625 (0.205 to 1.909) 2
  Risk Ratio (95% CI): Depression: Depressed mood disorders and disturbances (AE table): 1.106 (0.861 to 1.422) −1
  Risk Ratio (95% CI): Depression: Depressive disorders (AE table): 1.123 (0.867 to 1.454) −1
  Risk Ratio (95% CI): Depression: Depressive disorders - Agitated depression (AE table): [2 drugs vs 0 PBO]
  Risk Ratio (95% CI): Depression: Depressive disorders - Depression (AE table): 1.097 (0.843 to 1.428) −1
  Risk Ratio (95% CI): Depression: Depressive disorders - Major depression (AE table): 3.001 (0.312 to 28.836) −4
  Risk Ratio (95% CI): Depression: Depressive disorders - Persistent depressive disorder (AE table): 2.000 (0.181 to 22.053) −3
  Risk Ratio (95% CI): Depression: Mood alterations - Depressed mood (AE table): 1.000 (0.290 to 3.452) −1
  Risk Ratio (95% CI): Depression: Mood alterations - Depressive symptom (AE table): 0.500 (0.045 to 5.513) 3
  Risk Ratio (95% CI): Depression: Mood alterations with depressive symptoms (AE table): 0.857 (0.288 to 2.549) 1
  Risk Ratio (95% CI): Dermatitis psoriasiform (AE table): [1 drug vs 0 PBO]
  Risk Ratio (95% CI): Dermatitis, allergic (AE table): 0.250 (0.071 to 0.885) 4
  Risk Ratio (95% CI): Diabetic Nephropathy (AE table): 0.909 (0.387 to 2.139) 1
  Risk Ratio (95% CI): ESRD (AE table): 0.667 (0.111 to 3.989) 2
  Risk Ratio (95% CI): Ear infection (AE table): 0.821 (0.515 to 1.307) 1
  Risk Ratio (95% CI): Embolism and Thrombosis (AE table): 1.064 (0.716 to 1.581) −1
  Risk Ratio (95% CI): Emphysema (AE table): 0.600 (0.294 to 1.266) 2
  Risk Ratio (95% CI): Epilepsy (AE table): 1.000 (0.063 to 15.986) −1
  Risk Ratio (95% CI): Erectile dysfunction (AE table): 0.784 (0.535 to 1.151) 2
  Risk Ratio (95% CI): Furuncle (AE table): 0.500 (0.171 to 1.462) 3
  Risk Ratio (95% CI): Gastroenteritis, viral (AE table): 0.789 (0.525 to 1.185) 2
  Risk Ratio (95% CI): Gastroesophageal reflux (AE table): 0.333 (0.090 to 1.231) 4
  Risk Ratio (95% CI): Gingivitis (AE table): 0.500 (0.171 to 1.462) 3
  Risk Ratio (95% CI): Glomerulonephritis and Nephrotic Syndrome (AE table): [0 drug vs 4 PBO]
  Risk Ratio (95% CI): Guttate psoriasis (AE table): [1 drug vs 0 PBO)
  Risk Ratio (95% CI): Helicobacter infection (AE table): 0.556 (0.186 to 1.657) 3
  Risk Ratio (95% CI): Hepatitis C (AE table): [1 drug vs 0 PBO]
  Risk Ratio (95% CI): Herpes Zoster (AE table): 0.960 (0.695 to 1.325) 1
  Risk Ratio (95% CI): Herpes simplex (AE table): 0.625 (0.205 to 1.909) 2
  Risk Ratio (95% CI): Hyperglycemia (AE table): 0.764 (0.562 to 1.037) 2
  Risk Ratio (95% CI): Hyperkalemia (AE table): 0.582 (0.377 to 0.898) 3
  Risk Ratio (95% CI): Hypertension (AE table): 0.930 (0.804 to 1.077) 1
  Risk Ratio (95% CI): Hypertensive Crisis (AE Table): 0.698 (0.439 to 1.110) 2
  Risk Ratio (95% CI): Hypokalemia (AE table): 1.064 (0.784 to 1.445) −1
  Risk Ratio (95% CI): Hypomagnesemia (AE table): 0.675 (0.422 to 1.078) 2
  Risk Ratio (95% CI): IgA Nephropathy (AE table): [No cases in study]
  Risk Ratio (95% CI): Infected bite (AE table): 0.714 (0.227 to 2.249) 2
  Risk Ratio (95% CI): Influenza (AE table): 0.971 (0.824 to 1.144) 1
  Risk Ratio (95% CI): Influenza like illness (AE table): 0.852 (0.489 to 1.483) 1
  Risk Ratio (95% CI): Jaundice cholestatic (AE table): [4 drug vs 0 PBO]
  Risk Ratio (95% CI): Large intestine polyps (AE table): 0.385 (0.137 to 1.078) 4
  Risk Ratio (95% CI): Limb Fractures and Dislocations (AE table): 0.883 (0.541 to 1.439) 1
  Risk Ratio (95% CI): Lupus (AE table): [0 drugs vs 1 PBO]
  Risk Ratio (95% CI): Male Infertility (AE table): [No cases in study]
  Risk Ratio (95% CI): Microalbuminuria (AE table): 0.214 (0.062 to 0.745) 4
  Risk Ratio (95% CI): Migraine (AE table): 2.751 (0.877 to 8.631) −4
  Risk Ratio (95% CI): Mucosal inflammation (AE table): 0.600 (0.144 to 2.510) 2
  Risk Ratio (95% CI): Multiple Sclerosis (AE table): [0 drugs vs 1 PBO]
  Risk Ratio (95% CI): Muscle spasms (AE table): 0.579 (0.421 to 0.795) 3
  Risk Ratio (95% CI): NASH (AE table): 0.167 (0.020 to 1.384) 5
  Risk Ratio (95% CI): NASH for b/l NFS >0.675 (AE table): 0.252 (0.028 to 2.251) 4
  Risk Ratio (95% CI): NASH+Hepatic Steatosis for NFS >0.675 (AE table): 0.740 (0.342 to 1.601) 2
  Risk Ratio (95% CI): Nasopharyngitis, Mild Severity (AE table): 0.975 (0.840 to 1.133) 1
  Risk Ratio (95% CI): Nephrolithiasis (AE table): 1.050 (0.777 to 1.419) −1
  Risk Ratio (95% CI): Nephropathies (AE table): 0.679 (0.380 to 1.213) 2
  Risk Ratio (95% CI): Nephrotic Syndrome (AE table): [0 drug vs 1 PBO]
  Risk Ratio (95% CI): Orthopnea (AE table): 0.500 (0.151 to 1.660) 3
  Risk Ratio (95% CI): PMS/Dysmenorrhea (AE table): [No cases in study]
  Risk Ratio (95% CI): PTSD (AE table): 0.667 (0.111 to 3.989) 2
  Risk Ratio (95% CI): Pancytopenia (AE table): 0.556 (0.186 to 1.657) 3
  Risk Ratio (95% CI): Pneumonia (AE table): 0.950 (0.807 to 1.118) 1
  Risk Ratio (95% CI): Polycystic Ovarian Syndrome (AE table): [No cases in study]
  Risk Ratio (95% CI): Proteinuria (AE table): 0.609 (0.314 to 1.181) 2
  Risk Ratio (95% CI): Psoriasis (AE table): 1.750 (0.949 to 3.230) −3
  Risk Ratio (95% CI): Psoriatic Conditions (AE table): 1.875 (1.024 to 3.435) −3
  Risk Ratio (95% CI): Psychosis: Psychotic disorder NEC (AE table): 0.500 (0.045 to 5.513) 3
  Risk Ratio (95% CI): Pulmonary Edema (AE table): 0.556 (0.257 to 1.202) 3
  Risk Ratio (95% CI): Rental Transplant (AE table): [No cases in study]
  Risk Ratio (95% CI): Respiratory Failure (AE table): 0.909 (0.497 to 1.664) 1
  Risk Ratio (95% CI): Respiratory tract infection (AE table): 0.939 (0.629 to 1.401) 1
  Risk Ratio (95% CI): Rheumatoid Arthritis (AE table): [0 drug vs 3 PBO]
  Risk Ratio (95% CI): Rhinitis (AE table): 0.727 (0.383 to 1.383) 2
  Risk Ratio (95% CI): Schizophrenia NEC (AE table): 0.500 (0.045 to 5.513) 3
  Risk Ratio (95% CI): Sepsis (AE table): 0.786 (0.499 to 1.237) 2
  Risk Ratio (95% CI): Severe chronic obstructive pulmonary disease (AE table): 0.857 (0.458 to 1.607) 1
  Risk Ratio (95% CI): Severe dermatitis, allergic (AE table): 0.250 (0.028 to 2.236) 4
  Risk Ratio (95% CI): Severe gastroenteritis (AE table): 0.667 (0.273 to 1.630) 2
  Risk Ratio (95% CI): Severe sepsis (AE table): 0.759 (0.437 to 1.318) 2
  Risk Ratio (95% CI): Severe systemic inflammatory response syndrome (AE table): 0.167 (0.020 to 1.384) 5
  Risk Ratio (95% CI): Severe urinary tract infection (AE table): 0.650 (0.324 to 1.305) 2
  Risk Ratio (95% CI): Sickle Cell Disease (AE table): [No cases in study]
  Risk Ratio (95% CI): Systemic inflammatory response syndrome (AE table): 0.250 (0.053 to 1.177) 4
  Risk Ratio (95% CI): Tooth infection (AE table): 0.690 (0.391 to 1.217) 2
  Risk Ratio (95% CI): Ulcerative Colitis (AE table): [0 drug vs 1 PBO]
  Risk Ratio (95% CI): Vascular hypertensive disorder (AE table): 0.914 (0.796 to 1.050) 1
  Risk Ratio (95% CI): Vulvovaginal mycotic infection (AE table): 0.455 (0.158 to 1.307) 3
  Risk Ratio (95% CI): Wheezing (AE table): 0.639 (0.379 to 1.076) 2
ADHD
  ARR: 0.0%
  NNT: −8362005
  Risk Ratio (95% CI): 1.000 (0.141 to 7.097) −1
Acute Myeloid Leukaemia
  ARR: 0.0%
  NNT: −8362005
  Risk Ratio (95% CI): 1.000 (0.141 to 7.097) −1
[1]
  ARR: 0.0%
  NNT: −4088
  Risk Ratio (95% CI): 2.000 (0.181 to 22.053) −3
Alzheimer's Disease
  ARR: 0.0%
  NNT: −3344802
  Risk Ratio (95% CI): 1.000 (0.290 to 3.452) −1
Asthma
  ARR: 0.1%
  NNT: −1019
  Risk Ratio (95% CI): 1.076 (0.742 to 1.560) −1

— US20210308089A1, “METHODS OF TREATING AND/OR PREVENTING VIRAL INFECTIONS AND/OR DISEASES CAUSED BY VIRUSES IN A SUBJECT IN NEED THEREOF” (priority 2020, published 2021)
